Measured values as given in patent US10202360B2 (CELGENE QUANTICEL RESEARCH, INC., priority 2016, dated 2019).
pIC50: −log10 of the molar value.

Molecular target: CREBBP (Homo sapiens (Human), UniProt Q92793)
Experiment: In vitro enzyme inhibition assay - CREBBP inhibition (AlphaScreen, biotinylated H4-tetraacetyl peptide)
Assay type: binding
Settings: Table 28; AlphaScreen, H4-tetraacetyl peptide
Method: Determination of the IC50 for the CREBBP inhibitors disclosed herein was performed as follows: CREBBP was cloned and expressed in E. Coli as His-tag protein and purified by Nickel affinity and gel-filtration chromatography. […] CREBBP binding and inhibition was assessed by monitoring the interaction of biotinylated H4-tetraacetyl peptide (AnaSpec, H4K5/8/12/16(Ac), biotin-labeled) with the target using the AlphaScreen technology (Perkin Elmer). In a 384-well ProxiPlate CREBBP (50 nM final) was combined with peptide (20 nM final) in 50 mM HEPES (pH 7.3), 10 mM NaCl, 0.25 mM TCEP, 0.1% (w/v) BSA, and 0.005% (w/v) Brij-35 either in the presence of DMSO (final 0.4% DMSO) or compound dilution series in DMSO. After 20-minute incubation at room temperature, Alpha streptavidin donor beads and Nickel Chelate acceptor beads were added to a final concentration of 5 μg/mL. After two hours of equilibration, plates were read on an Envision instrument and the IC50 was calculated using a four parameter non-linear curve fit.
The ability of the compounds disclosed herein to inhibit CBP activity was quantified and the respective IC50 value was determined.

Chain of CREBBP (Q92793 1081-1197): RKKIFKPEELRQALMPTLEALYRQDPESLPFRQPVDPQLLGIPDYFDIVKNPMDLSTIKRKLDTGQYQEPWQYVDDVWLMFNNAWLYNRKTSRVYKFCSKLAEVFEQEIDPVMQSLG

Structure (SMILES)	pIC50
Cc1cc(-c2cc(NS(=O)(=O)C(C)C)nc(Oc3cc(Cl)ccc3Cl)n2)cn(C)c1=O [Example 1, Propane-2-sulfonic acid [2-(2,5-dichloro-phenoxy)-6-(1,5-dimethyl-6-oxo-1,6-dihydro-pyridin-3-yl)-pyrimidin-4-yl]-amide]	> 6.30
Cc1ccc(C)c(Oc2nc(NS(=O)(=O)C(C)C)cc(-c3cc(C)c(=O)n(C)c3)n2)c1 [Example 2, Propane-2-sulfonic acid [6-(1,5-dimethyl-6-oxo-1,6-dihydro-pyridin-3-yl)-2-(2,5-dimethyl-phenoxy)-pyrimidin-4-yl]-amide]	> 6.30
COc1ccc(C)cc1Oc1nc(NS(=O)(=O)C(C)C)cc(-c2cc(C)c(=O)n(C)c2)n1 [Example 4, Propane-2-sulfonic acid [6-(1,5-dimethyl-6-oxo-1,6-dihydro-pyridin-3-yl)-2-(2-methoxy-5-methyl-phenoxy)-pyrimidin-4-yl]-amide]	> 6.30
Cc1ccc(Cl)c(Oc2nc(NS(=O)(=O)C(C)C)cc(-c3cc(C)c(=O)n(C)c3)n2)c1 [Example 5, Propane-2-sulfonic acid [2-(2-chloro-5-methyl-phenoxy)-6-(1,5-dimethyl-6-oxo-1,6-dihydro-pyridin-3-yl)-pyrimidin-4-yl]-amide]	> 6.30
Cc1ccc(Cl)cc1Oc1nc(NS(=O)(=O)C(C)C)cc(-c2cc(C)c(=O)n(C)c2)n1 [Example 6, Propane-2-sulfonic acid [2-(5-chloro-2-methyl-phenoxy)-6-(1,5-dimethyl-6-oxo-1,6-dihydro-pyridin-3-yl)-pyrimidin-4-yl]-amide]	> 6.30
Cc1ccc(C#N)cc1Oc1nc(NS(=O)(=O)C(C)C)cc(-c2cc(C)c(=O)n(C)c2)n1 [Example 7, Propane-2-sulfonic acid [2-(5-cyano-2-methyl-phenoxy)-6-(1,5-dimethyl-6-oxo-1,6-dihydro-pyridin-3-yl)-pyrimidin-4-yl]-amide]	> 6.30
COc1cccc(C)c1Oc1nc(NS(=O)(=O)C(C)C)cc(-c2cc(C)c(=O)n(C)c2)n1 [Example 8, Propane-2-sulfonic acid [6-(1,5-dimethyl-6-oxo-1,6-dihydro-pyridin-3-yl)-2-(2-methoxy-6-methyl-phenoxy)-pyrimidin-4-yl]-amide]	> 6.30
COc1ccc(C#N)cc1Oc1nc(NS(=O)(=O)C(C)C)cc(-c2cc(C)c(=O)n(C)c2)n1 [Example 9, Propane-2-sulfonic acid [2-(5-cyano-2-methoxy-phenoxy)-6-(1,5-dimethyl-6-oxo-1,6-dihydro-pyridin-3-yl)-pyrimidin-4-yl]-amide]	> 6.30
CCCCS(=O)(=O)Nc1cc(-c2cc(C)c(=O)n(C)c2)nc(Oc2cc(C#N)ccc2OC)n1 [Example 10, Butane-1-sulfonic acid [2-(5-cyano-2-methoxy-phenoxy)-6-(1,5-dimethyl-6-oxo-1,6-dihydro-pyridin-3-yl)-pyrimidin-4-yl]-amide]	> 6.30
CCCCS(=O)(=O)Nc1cc(-c2cc(C)c(=O)n(C)c2)nc(Oc2c(C#N)cccc2OC)n1 [Example 12, Butane-1-sulfonic acid [2-(2-cyano-6-methoxy-phenoxy)-6-(1,5-dimethyl-6-oxo-1,6-dihydro-pyridin-3-yl)-pyrimidin-4-yl]-amide]	> 6.30
CCCCS(=O)(=O)Nc1cc(-c2cc(C)c(=O)n(C)c2)nc(Oc2cc(Cl)ccc2Cl)n1 [Example 13, Butane-1-sulfonic acid [2-(2,5-dichloro-phenoxy)-6-(1,5-dimethyl-6-oxo-1,6-dihydro-pyridin-3-yl)-pyrimidin-4-yl]-amide]	> 6.30
CCCCS(=O)(=O)Nc1cc(-c2cc(C)c(=O)n(C)c2)nc(Oc2cc(C)ccc2Cl)n1 [Example 15, Butane-1-sulfonic acid [2-(2-chloro-5-methyl-phenoxy)-6-(1,5-dimethyl-6-oxo-1,6-dihydro-pyridin-3-yl)-pyrimidin-4-yl]-amide]	> 6.30
CCCCS(=O)(=O)Nc1cc(-c2cc(C)c(=O)n(C)c2)nc(Oc2ccccc2Cl)n1 [Example 16, Butane-1-sulfonic acid [2-(2-chloro-phenoxy)-6-(1,5-dimethyl-6-oxo-1,6-dihydro-pyridin-3-yl)-pyrimidin-4-yl]-amide]	> 6.30
Cc1cc(-c2cc(NS(=O)(=O)C(C)C)nc(Oc3c(F)cccc3F)n2)cn(C)c1=O [Example 17, Propane-2-sulfonic acid [2-(2,6-difluoro-phenoxy)-6-(1,5-dimethyl-6-oxo-1,6-dihydro-pyridin-3-yl)-pyrimidin-4-yl]-amide]	> 6.30
CCCCS(=O)(=O)Nc1cc(-c2cc(C)c(=O)n(C)c2)nc(Oc2c(F)cccc2F)n1 [Example 18, Butane-1-sulfonic acid [2-(2,6-difluoro-phenoxy)-6-(1,5-dimethyl-6-oxo-1,6-dihydro-pyridin-3-yl)-pyrimidin-4-yl]-amide]	> 6.30
CCCCS(=O)(=O)Nc1cc(-c2cc(C)c(=O)n(C)c2)nc(Oc2c(C)cccc2F)n1 [Example 19, Butane-1-sulfonic acid [6-(1,5-dimethyl-6-oxo-1,6-dihydro-pyridin-3-yl)-2-(2-fluoro-6-methyl-phenoxy)-pyrimidin-4-yl]-amide]	> 6.30
CCCS(=O)(=O)Nc1cc(-c2cc(C)c(=O)n(C)c2)nc(Oc2c(F)cccc2F)n1 [Example 20, Propane-1-sulfonic acid [2-(2,6-difluoro-phenoxy)-6-(1,5-dimethyl-6-oxo-1,6-dihydro-pyridin-3-yl)-pyrimidin-4-yl]-amide]	> 6.30
CCCS(=O)(=O)Nc1cc(-c2cc(C)c(=O)n(C)c2)nc(Oc2c(C)cccc2F)n1 [Example 21, Propane-1-sulfonic acid [6-(1,5-dimethyl-6-oxo-1,6-dihydro-pyridin-3-yl)-2-(2-fluoro-6-methyl-phenoxy)-pyrimidin-4-yl]-amide]	> 6.30
CCCCS(=O)(=O)Nc1cc(-c2cc(C)c(=O)n(C)c2)nc(Oc2c(C)cccc2C#N)n1 [Example 22, Butane-1-sulfonic acid [2-(2-cyano-6-methyl-phenoxy)-6-(1,5-dimethyl-6-oxo-1,6-dihydro-pyridin-3-yl)-pyrimidin-4-yl]-amide]	> 6.30
CCCS(=O)(=O)Nc1cc(-c2cc(C)c(=O)n(C)c2)nc(Oc2c(C)cccc2C#N)n1 [Example 23, Propane-1-sulfonic acid [2-(2-cyano-6-methyl-phenoxy)-6-(1,5-dimethyl-6-oxo-1,6-dihydro-pyridin-3-yl)-pyrimidin-4-yl]-amide]	> 6.30
Cc1cccc(C#N)c1Oc1nc(NS(=O)(=O)C(C)C)cc(-c2cc(C)c(=O)n(C)c2)n1 [Example 24, Propane-2-sulfonic acid [2-(2-cyano-6-methyl-phenoxy)-6-(1,5-dimethyl-6-oxo-1,6-dihydro-pyridin-3-yl)-pyrimidin-4-yl]-amide]	> 6.30
Cc1cc(Cl)cc(Cl)c1Oc1nc(NS(C)(=O)=O)cc(-c2cc(C)c(=O)n(C)c2)n1 [Example 25, N-[2-(2,4-Dichloro-6-methyl-phenoxy)-6-(1,5-dimethyl-6-oxo-1,6-dihydro-pyridin-3-yl)-pyrimidin-4-yl]-methanesulfonamide]	> 6.30
CCS(=O)(=O)Nc1cc(-c2cc(C)c(=O)n(C)c2)nc(Oc2c(C)cc(Cl)cc2Cl)n1 [Example 26, Ethanesulfonic acid [2-(2,4-dichloro-6-methyl-phenoxy)-6-(1,5-dimethyl-6-oxo-1,6-dihydro-pyridin-3-yl)-pyrimidin-4-yl]-amide]	> 6.30
CCCS(=O)(=O)Nc1cc(-c2cc(C)c(=O)n(C)c2)nc(Oc2c(C)cc(Cl)cc2Cl)n1 [Example 27, Propane-1-sulfonic acid [2-(2,4-dichloro-6-methyl-phenoxy)-6-(1,5-dimethyl-6-oxo-1,6-dihydro-pyridin-3-yl)-pyrimidin-4-yl]-amide]	> 6.30
CCCCS(=O)(=O)Nc1cc(-c2cc(C)c(=O)n(C)c2)nc(Oc2c(C)cc(Cl)cc2Cl)n1 [Example 28, Butane-1-sulfonic acid [2-(2,4-dichloro-6-methyl-phenoxy)-6-(1,5-dimethyl-6-oxo-1,6-dihydro-pyridin-3-yl)-pyrimidin-4-yl]-amide]	> 6.30
Cc1cc(Cl)cc(Cl)c1Oc1nc(NS(C)(=O)=O)cc(-c2ccc(=O)n(C)c2)n1 [Example 29, N-[2-(2,4-Dichloro-6-methyl-phenoxy)-6-(1-methyl-6-oxo-1,6-dihydro-pyridin-3-yl)-pyrimidin-4-yl]-methanesulfonamide]	> 6.30
CCS(=O)(=O)Nc1cc(-c2ccc(=O)n(C)c2)nc(Oc2c(C)cc(Cl)cc2Cl)n1 [Example 30, Ethanesulfonic acid [2-(2,4-dichloro-6-methyl-phenoxy)-6-(1-methyl-6-oxo-1,6-dihydro-pyridin-3-yl)-pyrimidin-4-yl]-amide]	> 6.30
CCCS(=O)(=O)Nc1cc(-c2ccc(=O)n(C)c2)nc(Oc2c(C)cc(Cl)cc2Cl)n1 [Example 31, Propane-1-sulfonic acid [2-(2,4-dichloro-6-methyl-phenoxy)-6-(1-methyl-6-oxo-1,6-dihydro-pyridin-3-yl)-pyrimidin-4-yl]-amide]	> 6.30
CCCCS(=O)(=O)Nc1cc(-c2ccc(=O)n(C)c2)nc(Oc2c(C)cc(Cl)cc2Cl)n1 [Example 32, Butane-1-sulfonic acid [2-(2,4-dichloro-6-methyl-phenoxy)-6-(1-methyl-6-oxo-1,6-dihydro-pyridin-3-yl)-pyrimidin-4-yl]-amide]	> 6.30
